Assay results from the Deep4Chem optical property database.
Values belong to the molecule of their own block, whether it stands above or below them.

Assay: solvent given as SMILES

absorption maximum (in ClCCl): 553 nm
SMILES: F[B-]12Oc3ccccc3-c3c4[n+]5c(c([n+]31)-c1ccccc1O2)-c1ccccc1O[B-]5(F)Oc1ccccc1-4

absorption maximum (in ClCCl): 523 nm
SMILES: Cc1ccc(N(c2ccc(C)cc2)c2ccc(Oc3nnc(Cl)nn3)cc2)cc1

absorption maximum (in C1CCCCC1): 449 nm
SMILES: c1ccc(-c2cc3cccc[n+]3[b-]3c(-c4cccc5[b-]4[n+]4ccccc4cc5-c4ccccc4)cccc32)cc1

absorption maximum (in ClC(Cl)Cl): 598 nm
SMILES: CC[N+](CC)=c1ccc2c(-c3ccccc3C(=O)O)c3cc4c(-c5ccccc5C(=O)O)c5ccc(=[N+](CC)CC)cc-5oc4cc3oc-2c1

absorption maximum (in ClCCl): 435 nm
SMILES: Cc1ccc(C2=Nc3cccc4[n+]3[B-](c3ccccc3)(N2)NC(c2ccc(C)cc2)=N4)cc1

absorption maximum (in ClC(Cl)Cl): 386 nm
SMILES: Cc1ccc2c3ccc(C)cc3c3cc4c(C)cc(=O)oc4cc3c2c1

absorption maximum (in O): 463 nm
SMILES: CC[n+]1c(-c2ccccc2)c2cc(NC(N)=O)ccc2c2ccc(N)cc21

absorption maximum (in CCOC(C)=O): 419 nm
SMILES: CCN1CCN(c2ccc(/N=N/c3ccc(C(=O)OC)cc3)cc2)CC1

absorption maximum (in ClC(Cl)Cl): 328 nm
SMILES: CCCCn1c2ccccc2c2ccc3c4cc(-c5cccc(F)c5)ccc4n(CCCC)c3c21

absorption maximum (in C1CCCCC1): 406 nm
SMILES: Cc1cc(C)c(B2c3cc(C(C)(C)C)ccc3-c3c(-c4ccccc4)ccc4cc(C(C)(C)C)cc2c34)c(C)c1

absorption maximum (in C1CCOC1): 571 nm
SMILES: F[B-]1(F)n2c(-c3ccccc3)cc(-c3ccccc3)c2C=C2C(c3ccccc3)=CC(c3ccccc3)=[N+]21

absorption maximum (in ClCCl): 307 nm
SMILES: c1ccc2c(-c3cc4c(ccc5sccc54)s3)cccc2c1

absorption maximum (in ClCCl): 377 nm
SMILES: CCN(CC)c1ccc2c(c1)oc(=O)c1cc3c(C)nn(-c4ccccc4)c3nc12

absorption maximum (in c1ccccc1): 368 nm
SMILES: CON(C)C(=O)c1ccc(/C=C/c2ccc(/C=C/c3ccc(C(=O)N(C)OC)cc3)cc2)cc1

absorption maximum (in C1COCCO1): 342 nm
absorption maximum (in CC#N): 342 nm
absorption maximum (in CO): 342 nm
absorption maximum (in ClCCl): 341 nm
SMILES: CNc1ncc2nc(C#N)n(Cc3ccccc3)c2n1

absorption maximum (in ClCCl): 432 nm
SMILES: CN(C)c1ccc(/C=C/c2cnc(/C=C/c3ccc(C#N)cc3)o2)cc1

absorption maximum (in C1CCOC1): 561 nm
SMILES: F[B-]1(F)n2c(-c3ccccc3)cc(-c3ccccc3)c2C(c2ccccc2)=C2C(c3ccccc3)=CC(c3ccccc3)=[N+]21

absorption maximum (in C1CCOC1): 321 nm
SMILES: c1ccc(-c2cc3ccccc3p2-c2ccccc2)cc1 (stereo unspecified)

More lines, now with the values behind:

SMILES: CCCCC1(c2ccccc2)Nc2c(-c3ccc(N(c4ccccc4)c4ccccc4)cc3)ccc(-c3ccc(N(c4ccccc4)c4ccccc4)cc3)c2N=C1c1ccccc1 (stereo unspecified)
absorption maximum (in ClC(Cl)Cl): 370 nm

SMILES: Cc1cccc(C2=CC3=C(c4c(C)cc(C)cc4C)c4cc(-c5cccc(C)c5)c(-c5cccc(C)c5)n4[B-](F)(F)[N+]3=C2c2cccc(C)c2)c1
absorption maximum (in C1CCCCC1): 579 nm
absorption maximum (in C1CCOC1): 577 nm
absorption maximum (in CC#N): 559 nm
absorption maximum (in Cc1ccccc1): 571 nm
absorption maximum (in ClCCl): 573 nm

SMILES: O=Cc1ccc(-c2ccc(C3=CCCCC3)s2)s1
absorption maximum (in C1CCOC1): 385 nm
absorption maximum (in CC#N): 358 nm
absorption maximum (in CCCCCC): 381 nm
absorption maximum (in CCO): 389 nm
absorption maximum (in OCCOCCO): 389 nm
absorption maximum (in c1ccncc1): 392 nm

SMILES: O=P1(c2ccccc2)C(c2cccs2)=C(c2cccs2)c2ccccc21 (stereo unspecified)
absorption maximum (in C1CCOC1): 368 nm

SMILES: CC1(C)C(/C=C/C2=C(Cl)C(=C/C=C3/N(CCCCS(=O)(=O)[O-])c4ccc5ccccc5c4C3(C)C)/CCC2)=[N+](CCCCS(=O)(=O)[O-])c2ccc3ccccc3c21
absorption maximum (in CO): 820 nm

SMILES: c1ccc(-c2ccc3c(c2)c2cc(-c4ccccc4)ccc2n3-c2ccc3c(c2)c2cc(-n4c5ccc(-c6ccccc6)cc5c5cc(-c6ccccc6)ccc54)ccc2n3-c2ccc(-c3nc(-c4ccccc4)nc(-c4ccccc4)n3)cc2)cc1
absorption maximum (in Cc1ccccc1): 362 nm

SMILES: c1ccc(-c2ccc(-c3ccc(N(c4ccccc4)c4ccccc4)cc3)c3nsnc23)cc1
absorption maximum (in C1CCOC1): 437 nm
absorption maximum (in CC(C)=O): 424 nm
absorption maximum (in CCCCCC): 438 nm
absorption maximum (in CCOCC): 435 nm

SMILES: CC(C)(C)c1cc2ccc3cccc4c3c2c(c1)c1nc2c3cc(C(C)(C)C)cc5ccc6cccc(c(=O)n2c41)c6c53
absorption maximum (in C1CCOC1): 395 nm
absorption maximum (in CC#N): 389 nm
absorption maximum (in CC(C)=O): 391 nm
absorption maximum (in CCCCCC): 393 nm
absorption maximum (in CCO): 390 nm
absorption maximum (in CCOC(C)=O): 390 nm
absorption maximum (in CO): 382 nm
absorption maximum (in CS(C)=O): 391 nm
absorption maximum (in Cc1ccc(C)cc1): 392 nm
absorption maximum (in ClC(Cl)(Cl)Cl): 395 nm
absorption maximum (in ClC(Cl)Cl): 395 nm
absorption maximum (in c1ccccc1): 395 nm

SMILES: COc1ccc(C#Cc2c3ccccc3c(C#Cc3ccc(OC)cc3)c3cc4ccccc4cc23)cc1
absorption maximum (in ClCCl): 559 nm

SMILES: C(=C\c1ccnc2ccccc12)/c1ccc(/C=C/c2ccnc3ccccc23)cc1
absorption maximum (in C1CCCCC1): 364 nm
absorption maximum (in C1COCCO1): 370 nm
absorption maximum (in CC#N): 370 nm
absorption maximum (in CC(C)=O): 371 nm
absorption maximum (in CC(C)O): 374 nm
absorption maximum (in CCCO): 374 nm
absorption maximum (in CCO): 374 nm
absorption maximum (in CN(C)C=O): 378 nm
absorption maximum (in CO): 374 nm
absorption maximum (in CS(C)=O): 382 nm
absorption maximum (in ClC(Cl)Cl): 370 nm
absorption maximum (in ClCCl): 370 nm
absorption maximum (in OCCO): 382 nm

SMILES: CCCCCCN1C(=O)c2cccc3c(-c4ccc(-c5cc(-c6ccc(Cl)cc6)n(-c6ccccc6)n5)s4)ccc(c23)C1=O
absorption maximum (in ClCCl): 402 nm

SMILES: Nc1ccc2c(-c3ccc(Br)cc3)c3ccc(=[NH2+])cc-3oc2c1
absorption maximum (in CCO): 514 nm

SMILES: COc1ccc(C2=C(c3ccc(OC)cc3)C(C)(C)c3cc(OC)ccc32)cc1
absorption maximum (in C1CCCCC1): 296 nm

SMILES: O=CN1N=C(c2ccc(Br)cc2)C[C@@H]1c1ccccc1
absorption maximum (in C1CCCCC1): 305 nm
absorption maximum (in C1COCCO1): 303 nm
absorption maximum (in CC#N): 298 nm
absorption maximum (in CCO): 297 nm
absorption maximum (in CCOC(C)=O): 301 nm
absorption maximum (in CO): 298 nm
absorption maximum (in CS(C)=O): 302 nm
absorption maximum (in Cc1ccccc1): 306 nm
absorption maximum (in ClC(Cl)(Cl)Cl): 306 nm

SMILES: CCN(CC)c1ccc([N+]2=Cc3ccc4c5c(ccc4c3O[B-]2(c2c(F)c(F)c(F)c(F)c2F)c2c(F)c(F)c(F)c(F)c2F)C=[N+](c2ccc(N(CC)CC)cc2)[B-](c2c(F)c(F)c(F)c(F)c2F)(c2c(F)c(F)c(F)c(F)c2F)O5)cc1
absorption maximum (in C1CCOC1): 559 nm
absorption maximum (in CC#N): 555 nm
absorption maximum (in CC(C)=O): 555 nm
absorption maximum (in Cc1ccccc1): 584 nm
absorption maximum (in ClCCl): 589 nm

SMILES: CCc1c(C)[nH]c(C2=[N+]3C(=Cc4c(C)c(CC)c(/C=C/c5ccc(N(C)C)cc5)n4[B-]3(F)F)c3ccccc32)c1C
absorption maximum (in C1CCOC1): 720 nm
absorption maximum (in CC#N): 713 nm
absorption maximum (in CCCCCC): 719 nm
absorption maximum (in CO): 712 nm
absorption maximum (in Cc1ccccc1): 730 nm
absorption maximum (in ClCCl): 725 nm

SMILES: CCOC(=O)c1cc(C(=O)OCC)c2cc(N(CC)CC)ccc2n1
absorption maximum (in CCO): 453 nm

SMILES: CCCC1=Cc2nc1ccc1[nH]c(cc1CCC)c1nc(c3ccccc3c3[nH]c2cc3CCC)C(CCC)=C1
absorption maximum (in Cc1ccccc1): 762 nm

SMILES: CN(C)c1ccc2cc3c(cc2c1)OCCN=C3
absorption maximum (in C1CCOC1): 353 nm
absorption maximum (in CC#N): 456 nm
absorption maximum (in CC(C)O): 362 nm
absorption maximum (in CCOC(C)=O): 354 nm
absorption maximum (in CN(C)C=O): 362 nm
absorption maximum (in CS(C)=O): 359 nm
absorption maximum (in Cc1ccccc1): 355 nm
absorption maximum (in ClCCl): 450 nm
absorption maximum (in O): 451 nm

SMILES: Cc1ccc(CN2/C(=C/C=C3\CCCC(/C=C/C4=[N+](Cc5ccc(C)cc5)c5ccccc5C4(C)C)=C3Cl)C(C)(C)c3ccccc32)cc1
absorption maximum (in CO): 785 nm

SMILES: CC1(C)c2ccccc2N(c2ccc(-c3nc(-c4ccccn4)n(-c4ccc(N5c6ccccc6C(C)(C)c6ccccc65)cc4)n3)cc2)c2ccccc21
absorption maximum (in ClCCl): 375 nm

SMILES: COc1ccc(-n2nc(C#N)c(N3CCCCCC3)n2)cc1
absorption maximum (in CC#N): 344 nm

SMILES: CCC1=C(C)C2=Cc3cccn3[B-](F)(F)[N+]2=C1C
absorption maximum (in C1CCCCC1): 512.5 nm
absorption maximum (in CC(C)=O): 503.5 nm
absorption maximum (in CCO): 505.5 nm
absorption maximum (in CCOC(C)=O): 505 nm
absorption maximum (in CO): 504.5 nm
absorption maximum (in OCC(F)(F)F): 494.5 nm

SMILES: CCN(CC)c1ccc(C2=C3C(C)=CC(/C=C/c4ccc(OCCCN=[N+]=[N-])cc4)=[N+]3[B-](F)(F)n3c(C)cc(C)c32)cc1
absorption maximum (in CO): 570 nm

SMILES: CN(C)c1ccc(C2=Nc3sc4ccccc4[n+]3[B-](F)(F)O2)cc1
absorption maximum (in C1CCOC1): 424 nm
absorption maximum (in CC#N): 421 nm
absorption maximum (in CC(C)=O): 425 nm
absorption maximum (in Cc1ccccc1): 421 nm
absorption maximum (in ClCCl): 425 nm

SMILES: C(=C\c1nc(-c2ccccc2)c2ccccn12)/c1nc(-c2ccccc2)c2ccccn12
absorption maximum (in CC#N): 438 nm

SMILES: COc1ccc(OC)c(C2=C3C=CC(=[N+](C)C)C=C3[Si](C)(C)c3cc(N(C)C)ccc32)c1
absorption maximum (in O): 651 nm

SMILES: Cc1ccc2nc3cc4c(cc3c(-c3ccccc3)c2c1)[Si](C)(C)O[Si]4(C)C
absorption maximum (in ClCCl): 370 nm

SMILES: CCC1=C(C)C(=O)n2c1cc1c(C)cc(C)n1c2=O
absorption maximum (in CC#N): 409 nm
absorption maximum (in CC(C)=O): 412 nm
absorption maximum (in CO): 420 nm
absorption maximum (in CS(C)=O): 420 nm
absorption maximum (in ClC(Cl)Cl): 420 nm
absorption maximum (in c1ccccc1): 423 nm

SMILES: c1cc2ccc1CCCc1cc3c(cc1CCCc1ccc(c4nsnc14)CCC3)CCC2
absorption maximum (in C1CCCCC1): 402 nm
absorption maximum (in CC#N): 403 nm
absorption maximum (in ClC(Cl)Cl): 402 nm

SMILES: F[B-]1(F)n2c(Oc3ccccc3)c(Cl)c3c2C(=C2C(Br)=C(Cl)C(Oc4ccccc4)=[N+]21)Oc1ccccc1-3
absorption maximum (in ClCCl): 472 nm

SMILES: Cn1c(=O)c(/N=N/c2cc(S(=O)(=O)O)ccc2S(=O)(=O)O)c(O)c2ccccc21
absorption maximum (in C1CCOC1): 428 nm
absorption maximum (in CC(C)=O): 421 nm
absorption maximum (in CCOC(C)=O): 423 nm
absorption maximum (in CO): 422 nm
absorption maximum (in CS(C)=O): 419 nm
absorption maximum (in Cc1ccccc1): 430 nm
absorption maximum (in ClCCl): 415 nm
absorption maximum (in O): 413 nm

SMILES: N#C/C(=N/Nc1ccc(C#N)cc1)c1nc(-c2ccccc2)cs1
absorption maximum (in CC#N): 396 nm
absorption maximum (in CCO): 398 nm
absorption maximum (in CN(C)C=O): 477 nm
absorption maximum (in Cc1ccccc1): 401 nm
absorption maximum (in ClCCl): 399 nm
